According to US20200390825A1, “PLURIPOTENT STEM CELL-DIRECTED MODEL OF AUTOSOMAL DOMINANT POLYCYSTIC KIDNEY DISEASE FOR DISEASE MECHANISM AND DRUG DISCOVERY” (University of Southern California, priority 2019, published 2020):

Assays:
[1] = test system: PKD2−/− organoids; settings: for Inhibition of cyst formation / cystic growth: PKD2−/− mutant organoids, 0.1 μM
Method: (§1) 15 g of methelcellulose powder (Sigma-Aldrich, M0512) was autoclaved in a 500-ml Erlenmeyer flask. The autoclaved methylcellulose was dissolved in 60° C. 450 ml of Advanced RPMI 1640 Medium (Gibco, 12633020). 50 ml of Advanced RPMI 1640 Medium+1× Glutamax (Gibco, 35050079) and 1% Penicillin-Streptomycin (Invitrogen, 15070063) was then added at room temperature to a final volume of 500 ml. The final stock solution was cleared by centrifugation at 4000×g for 2 hours. The clear viscous supernatant was used for the spheroid assay. For mini-organoids culture and imaging, 170 μl of 20% methycellulose stock solution+80% basal differentiation media mix was added to each well of a 96-well plate (brand).
(§2) At dd13, miniature kidney organoids were transferred from the EZSPHERE plates to a sterile 35-mm dish by gentle pipetting with wide-bore P1000 tips. Under a dissecting microscope, 10-12 mini-organoids in 10 μl of media were picked up using a P20 pipetman and released into a well of the methylcellulose plate. A P20 pipette tip was then used to adjust the mini-organoids' positions in the well to avoid clustering. The mini-organoids then dispersed at the bottom of the well.
Compounds that were scored as true “hits” from the primary screen were selected for validations in both PKD1−/− and PKD2−/− mutant organoids. The compounds were diluted in DMSO to 1, 10 or 100 μM via serial dilution to make the working stocks. At dd14, 20 μl of each diluted compound or DMSO was added to a methylcellulose well with embedded organoids (180 μl) to achieve a final concentration of 0.1, 1 or 10 μM. The plates were imaged for 7 days using the ImageXpress Micro System as described above.
Compounds that inhibited cyst formation in both PKD1−/− and PKD2−/− mini-organoids were classified as final “hits”.
Tolvaptan is the first FDA approved pharmacological treatment for ADPKD targeting cAMP levels through the inhibition of AVPR2.
We examined dosage-dependent responses by applying 3 different compound concentrations of each compound: 0.1, 1 and 10 μM.

[2] = test system: PKD2−/− organoids; test: Primary protein kinase inhibitor screen for cyst formation in mini-kidney organoids; format: cell-based, human; settings: 1 μM, 9 wells on 3 plates per compound
Method: The autoclaved methylcellulose was dissolved in 60° C. 450 ml of Advanced RPMI 1640 Medium (Gibco, 12633020).
Several commercially available libraries of pathway annotated protein kinase inhibitors were purchased from Calbiochem for screening: EMD protein kinase inhibitor 1 (Cat. No. 539744); EMD-protein kinase inhibitor-2 (Cat. No. 539745); EMD protein kinase inhibitor-3 (Cat. No. 539746); EMD protein kinase inhibitor-4 (Cat. No. 539747). All screens were carried out in the Choi Family Therapeutic Screening Facility in the Broad-CIRM center.
Protein kinase inhibitors were diluted in DMSO to make 10 μM stocks. […] The plates were loaded on the ImageXpress Micro System for live imaging right after compounds were loaded. The imaging was performed using the “Standard” algorithm, at 4× magnification, 2 camera binning, with laser-based and image-based focusing enabled, and well-to-well autofocus was set to “focus on plate bottom and well bottom”.
To gain new insight into pathways specifically regulating cystic growth and to validate the mini-organoid system as a robust drug screening tool, we screened a commercial library of pathway annotated protein kinase inhibitors (FIG. 19). The primary screen was performed using a library of 247 protein kinase inhibitors (PKIs) (at 1 μM) on PKD2−/− organoids, with 9 wells on 3 separate plates per compound. […] To increase the stringency of the screen, only compounds identified as “hits” in all 9 wells were considered true “hits” and selected for a secondary screen.

[3] = test system: PKD1−/− organoids; test: Secondary screen of cystogenesis, dosage-dependent responses; format: cell-based, human
Method: as §1, §2
Compounds that were scored as true “hits” from the primary screen were selected for validations in both PKD1−/− and PKD2−/− mutant organoids. […]

Row | Compound | Primary screen outcome at dd20 (cystic growth / cell growth inhibition) [2] | other results
1 | CC1=C(O)C(=O)C=C2C1=CC=C1[C@@]2(C)CC[C@@]2(C)[C@@H]3C[C@](C)(C(=O)O)CC[C@]3(C)CC[C@]12C [Celastrol] | – | Effect on cell growth ([1]; PKD2−/− organoids, 10 μM): more broadly detrimental to cell growth; Screen outcome category ([1]; PKD2−/− organoids, at 1): hit
2 | NC(=O)Nc1sc(-c2ccccc2)cc1C(N)=O [IKK-2 inhibitor VI, (5-phenyl-2-ureido)thiophene-3-carboxamide] | more specific inhibition of cystic growth | –
3 | O=C1NCCc2[nH]c(-c3ccncc3)cc21 [Cdc7/Cdk9 inhibitor] | more specific inhibition of cystic growth | –
4 | O=C1NC(=NCc2cccs2)S/C1=C\c1ccc2ncccc2c1 [Cdk1 inhibitor IV RO-3306] | more specific inhibition of cystic growth | –
5 | Nc1ccc2ncnc(NCCc3ccc(Oc4ccccc4)cc3)c2c1 [NF-κB activation inhibitor] | – | Inhibition of cystic growth ([3]; PKD1−/− mutants, 0.1 μM): highly effective inhibiting cystic growth; Inhibition of cyst formation / cystic growth [1]: highly effective inhibiting cystic growth
6 | COc1cccc(-c2cc(=O)c3ccccc3o2)c1N [PD 98059] | more specific inhibition of cystic growth | –
7 | O=C(c1ccc(Nc2nccc(-c3cc4ccccc4s3)n2)cc1)N1CCC(N2CCCC2)CC1 [IKK inhibitor VII] | more specific inhibition of cystic growth | –
8 | CN[C@@H]1C[C@H]2O[C@@](C)([C@@H]1OC)n1c3ccccc3c3c4c(c5c6ccccc6n2c5c31)C(=O)N[C@H]4O [UCN-02, 7-epi-hydroxystaurosporine] | more specific inhibition of cystic growth | –
9 | CC(C)C[C@H](NC(=O)[C@H](CCc1ccccc1)NC(=O)CN1CCOCC1)C(=O)N[C@@H](Cc1ccccc1)C(=O)N[C@@H](CC(C)C)C(=O)[C@@]1(C)CO1 [Carfilzomib] | – | Concentration at which cyst formation was prevented ([3]; PKD1−/− cystic organoids, tested 0.1, 1, 10 μM): only at the highest concentration; Inhibition of cyst formation / cystic growth [1]: prevented cyst formation effectively
10 | Cc1ncc2ccccc2c1C#N [4-Cyano-3-methylisoquinoline] | more specific inhibition of cystic growth | –
11 | Nc1ncnc2n[nH]c(Nc3ccc(F)cc3)c12 [MNK1 inhibitor] | more specific inhibition of cystic growth | –
12 | O=C1c2ccccc2-[n+]2ccc3c([nH]c4ccccc43)c21 [fascaplysin] | more specific inhibition of cystic growth | –
